According to BigSolDB 2.1:

Structure (SMILES): O=C(O)CCCCCCC(=O)O
- solubility (mole fraction) (in THF, 283.15 K): 0.0356
- solubility (mole fraction) (in THF, 289.75 K): 0.0437
- solubility (mole fraction) (in THF, 296.85 K): 0.0546
- solubility (mole fraction) (in THF, 303.75 K): 0.0665
- solubility (mole fraction) (in THF, 310.75 K): 0.0806
- solubility (mole fraction) (in THF, 317.95 K): 0.0982
- solubility (mole fraction) (in THF, 324.95 K): 0.117
- solubility (mole fraction) (in THF, 331.95 K): 0.141
- solubility (mole fraction) (in acetone, 283.15 K): 0.006
- solubility (mole fraction) (in acetone, 289.95 K): 0.00833
- solubility (mole fraction) (in acetone, 296.85 K): 0.0115
- solubility (mole fraction) (in acetone, 303.75 K): 0.0154
- solubility (mole fraction) (in acetone, 310.75 K): 0.0208
- solubility (mole fraction) (in acetone, 317.55 K): 0.0292
- solubility (mole fraction) (in acetone, 322.75 K): 0.035
- solubility (mole fraction) (in ethanol, 283.25 K): 0.0158
- solubility (mole fraction) (in ethanol, 290.35 K): 0.021
- solubility (mole fraction) (in ethanol, 297.05 K): 0.0281
- solubility (mole fraction) (in ethanol, 303.85 K): 0.0374
- solubility (mole fraction) (in ethanol, 310.95 K): 0.0491
- solubility (mole fraction) (in ethanol, 317.85 K): 0.0627
- solubility (mole fraction) (in ethanol, 324.85 K): 0.0795
- solubility (mole fraction) (in ethyl acetate, 283.15 K): 0.00167
- solubility (mole fraction) (in ethyl acetate, 289.95 K): 0.00227
- solubility (mole fraction) (in ethyl acetate, 296.85 K): 0.0031
- solubility (mole fraction) (in ethyl acetate, 303.95 K): 0.00462
- solubility (mole fraction) (in ethyl acetate, 310.95 K): 0.0065
- solubility (mole fraction) (in ethyl acetate, 317.75 K): 0.00902
- solubility (mole fraction) (in ethyl acetate, 324.85 K): 0.0125
- solubility (mole fraction) (in ethyl acetate, 331.75 K): 0.0186
- solubility (mole fraction) (in isopropanol, 283.15 K): 0.0145
- solubility (mole fraction) (in isopropanol, 289.95 K): 0.0198
- solubility (mole fraction) (in isopropanol, 296.95 K): 0.0271
- solubility (mole fraction) (in isopropanol, 303.55 K): 0.0368
- solubility (mole fraction) (in isopropanol, 310.95 K): 0.0486
- solubility (mole fraction) (in isopropanol, 317.95 K): 0.0639
- solubility (mole fraction) (in isopropanol, 324.75 K): 0.0816
- solubility (mole fraction) (in methanol, 283.25 K): 0.0179
- solubility (mole fraction) (in methanol, 290.35 K): 0.0242
- solubility (mole fraction) (in methanol, 297.05 K): 0.0322
- solubility (mole fraction) (in methanol, 303.85 K): 0.0443
- solubility (mole fraction) (in methanol, 310.95 K): 0.0572
- solubility (mole fraction) (in methanol, 317.85 K): 0.0748
- solubility (mole fraction) (in methanol, 324.85 K): 0.0951
- solubility (mole fraction) (in n-propanol, 283.15 K): 0.012
- solubility (mole fraction) (in n-propanol, 289.85 K): 0.017
- solubility (mole fraction) (in n-propanol, 296.75 K): 0.0233
- solubility (mole fraction) (in n-propanol, 303.85 K): 0.0308
- solubility (mole fraction) (in n-propanol, 310.75 K): 0.0422
- solubility (mole fraction) (in n-propanol, 317.75 K): 0.0559
- solubility (mole fraction) (in n-propanol, 325.05 K): 0.0718
- solubility (mole fraction) (in water, 283.25 K): 9.14e-05
- solubility (mole fraction) (in water, 290.25 K): 0.000131
- solubility (mole fraction) (in water, 297.15 K): 0.0002
- solubility (mole fraction) (in water, 303.85 K): 0.000291
- solubility (mole fraction) (in water, 310.85 K): 0.000439
- solubility (mole fraction) (in water, 318.15 K): 0.000662
- solubility (mole fraction) (in water, 325.15 K): 0.00107
- solubility (mole fraction) (in water, 332.45 K): 0.0017
- solubility (mole fraction) (in water, 339.15 K): 0.00265
